Experiment [1] has as its target T1, c-Myc/Max/Ebox DNA (Homo sapiens, UniProt P01106).
T1 construct: his6 (cleaved yes)
Put plainly: c-Myc/Max/Ebox DNA AlphaScreen Assay. The class given is binding. Conditions: Table 2, compounds of FIG. 1; calculated IC50 class. The procedure, abridged: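 Compounds were preincubated with free c-Myc (20 nM), biotinylated single-Ebox DNA (10 nM) and Ni acceptor beads before his6-Max (5 nM) and streptavidin donor beads were added. Buffer was 50 mM HEPES pH 8.0, 150 mM NaCl, BSA, Tween20, glycogen and DTT, with DMSO ≤2%. After 2 h incubation, AlphaScreen signal was read at 680 nm excitation and 520–620 nm emission.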

Experiment [2] has as its system human small lung cancer cell line H2171. Briefly: Cell Viability Assay (ATPlite). Format: cell-based. Conditions: Table 2, compounds of FIG. 1, H2171 cells, three days, ATPlite, calculated IC50 class, read-out: H2171 Activity. The procedure, abridged: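 Viability readout was ATPlite luminescence, taken after 3 days' incubation at 37° C. Human SCLC H2171 cells (20,000 cells/mL) received compound right after plating, as a 10-point dose response.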

Each structure is given as a SMILES string. Like-named read-outs stand apart in the source and are kept apart here.

T1 sequence (P01106 whole entry): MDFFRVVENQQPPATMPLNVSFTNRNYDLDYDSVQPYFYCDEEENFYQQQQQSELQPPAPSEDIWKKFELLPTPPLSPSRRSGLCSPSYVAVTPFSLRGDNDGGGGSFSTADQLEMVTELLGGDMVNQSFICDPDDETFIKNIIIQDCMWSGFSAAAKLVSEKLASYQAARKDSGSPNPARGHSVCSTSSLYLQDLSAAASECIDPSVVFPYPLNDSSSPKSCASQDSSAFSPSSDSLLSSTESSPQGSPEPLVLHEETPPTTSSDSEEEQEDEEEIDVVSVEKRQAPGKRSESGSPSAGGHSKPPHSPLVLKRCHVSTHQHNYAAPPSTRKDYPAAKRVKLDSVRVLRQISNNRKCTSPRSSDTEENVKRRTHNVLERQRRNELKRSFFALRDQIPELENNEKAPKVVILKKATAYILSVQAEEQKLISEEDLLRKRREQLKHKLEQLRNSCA

For the compound `COCCNCCC(=O)Nc1sc2c(c1-c1nc3cc(-c4cnn(C)c4)ccc3s1)CC(C)NC2C` (single isomer, unassigned) [Compound 565, N-(5,7-Dimethyl-3-(5-(1-methyl-1H-pyrazol-4-yl)benzo[d]thiazol-2-yl)-4,5,6,7-tetrahydrothieno[2,3-c]pyridin-2-yl)-3-((2-methoxyethyl)amino)propanamide], the IC50 in experiment [1] and in experiment [2] was under 300 nM each time.

Regarding `COCCNCCC(=O)Nc1sc2c(c1-c1nc3cc(-c4cnn(C)c4)ccc3s1)CC(C)NC2C` (single isomer, unassigned) [Compound 566, N-(5,7-Dimethyl-3-(5-(1-methyl-1H-pyrazol-4-yl)benzo[d]thiazol-2-yl)-4,5,6,7-tetrahydrothieno[2,3-c]pyridin-2-yl)-3-((2-methoxyethyl)amino)propanamide], the IC50 in experiment [1] is 1000 to 10000 nM; in experiment [2] it was under 300 nM.

In the case of `COCCNCCC(=O)Nc1sc2c(c1-c1nc3cc(-c4cnn(C)c4)ccc3s1)CC(C)NC2C` (single isomer, unassigned) [Compound 567, N-(5,7-Dimethyl-3-(5-(1-methyl-1H-pyrazol-4-yl)benzo[d]thiazol-2-yl)-4,5,6,7-tetrahydrothieno[2,3-c]pyridin-2-yl)-3-((2-methoxyethyl)amino)propanamide], the IC50 in experiment [1] is 1000 to 10000 nM; in experiment [2] it was under 300 nM.

As for `COCCNCCC(=O)Nc1sc2c(c1-c1nc3cc(-c4ccncc4)ccc3s1)CCNC2C` (single isomer, unassigned) [Compound 569, 3-((2-Methoxyethyl)amino)-N-(7-methyl-3-(5-(pyridin-4-yl)benzo[d]thiazol-2-yl)-4,5,6,7-tetrahydrothieno[2,3-c]pyridin-2-yl)propanamide], the IC50 in experiment [1] and in experiment [2] was 1000 to 10000 nM each time.

Consider `CC[C@H](C)NCCC(=O)Nc1sc2c(c1-c1nc3cc(C(F)(F)F)ccc3s1)CC(C)NC2C` (single isomer, unassigned) [Compound 584], for which the IC50 in experiment [1] was under 300 nM; in experiment [2] (Homo sapiens, NCI-H2171, 72 h), under 300 nM.

As for `CC[C@H](C)NCCC(=O)Nc1sc2c(c1-c1nc3cc(C(F)(F)F)ccc3s1)CC(C)NC2C` (single isomer, unassigned) [Compound 585], the IC50 in experiment [1] and in experiment [2] was under 300 nM each time.

For the compound `CC[C@H](C)NCCC(=O)Nc1sc2c(c1-c1nc3cc(C(F)(F)F)ccc3s1)CC(C)NC2C` (single isomer, unassigned) [Compound 586], the results for the IC50 in experiment [1] and in experiment [2] were over 10000 nM and under 300 nM, respectively.

For the compound `CC[C@H](C)NCCC(=O)Nc1sc2c(c1-c1nc3cc(C(F)(F)F)ccc3s1)CC(C)NC2C` (single isomer, unassigned) [Compound 587], the IC50 was over 10000 nM in experiment [1] and 300 to 1000 nM in experiment [2].

In the case of `CC[C@H](C)NCCC(=O)Nc1sc2c(c1-c1nc3ccccc3s1)CC(C)NC2C` (single isomer, unassigned) [Compound 620], the IC50 in experiment [1] and in experiment [2] was 1000 to 10000 nM in each case.

For the compound `CC[C@H](C)NCCC(=O)Nc1sc2c(c1-c1nc3ccccc3s1)CC(C)NC2C` (single isomer, unassigned) [Compound 621], the results for the IC50 in experiment [1] and in experiment [2] were over 10000 nM and 1000 to 10000 nM, respectively.

As to `CC[C@H](C)NCCC(=O)Nc1sc2c(c1-c1nc3ccccc3s1)CC(C)NC2C` (single isomer, unassigned) [Compound 624], the IC50 in experiment [1] and in experiment [2] was under 300 nM throughout.

On to `CC(C)N1CCc2c(sc(NC(=O)CCNCc3cnn(C)c3)c2-c2nc3ccccc3s2)C1` [Compound 100, N-(3-(benzo[d]thiazol-2-yl)-6-isopropyl-4,5,6,7-tetrahydrothieno[2,3-c]pyridin-2-yl)-3-(((1-methyl-1H-pyrazol-4-yl)methyl)amino)propanamide], for which the IC50 in experiment [1] was 300 to 1000 nM; in experiment [2] (Homo sapiens, NCI-H2171, 72 h) it was under 300 nM.

Turning to `CCC(C)N(C)CCC(=O)Nc1sc2c(c1-c1nc3ccccc3s1)CCN(C(C)C)C2` (stereo not shown) [Compound 122], the IC50 in experiment [1] is under 300 nM; in experiment [2] it was 300 to 1000 nM.

Turning to `CCC(C)NCCC(=O)Nc1sc2c(c1-c1nc3cc(F)ccc3s1)CCNC2` (stereo not shown) [Compound 123, 3-(sec-butylamino)-N-(3-(5-fluorobenzo[d]thiazol-2-yl)-4,5,6,7-tetrahydrothieno[2,3-c]pyridin-2-yl) propanamide], the IC50 in experiment [1] was under 300 nM; in experiment [2] (Homo sapiens, NCI-H2171, 72 h), under 300 nM.

Regarding `CCC(C)NCCC(=O)Nc1sc2c(c1-c1nc3ccccc3s1)CCNC2` (stereo not shown) [Compound 124, N-(3-(benzo[d]thiazol-2-yl)-4,5,6,7-tetrahydrothieno[2,3-c]pyridin-2-yl)-3-(sec-butylamino)propanamide], the IC50 is under 300 nM in experiment [1] and under 300 nM in experiment [2] (Homo sapiens, NCI-H2171, 72 h).

Regarding `CCC(C)NCCC(=O)Nc1sc2c(c1-c1nc3cc(C(F)(F)F)ccc3s1)CCNC2` (stereo not shown) [Compound 125, 3-(sec-butylamino)-N-(3-(5-(trifluoromethyl)benzo[d]thiazol-2-yl)-4,5,6,7-tetrahydrothieno[2,3-c]pyridin-2-yl) propanamide], the IC50 in experiment [1] is 300 to 1000 nM; in experiment [2] (Homo sapiens, NCI-H2171, 72 h), 300 to 1000 nM.

With `CCC(C)NCCC(=O)Nc1sc2c(c1-c1nc3cc(F)ccc3s1)CCN(C(C)C)C2` (stereo not shown) [Compound 126, 3-(sec-butylamino)-N-(3-(5-fluorobenzo[d]thiazol-2-yl)-6-isopropyl-4,5,6,7-tetrahydrothieno[2,3-c]pyridin-2-yl)propanamide], the IC50 in experiment [1] was under 300 nM; in experiment [2] (Homo sapiens, NCI-H2171, 72 h) it was under 300 nM.

On to `CC(C)N1CCc2c(sc(NC(=O)CCNC(C)(C)C)c2-c2nc3ccccc3s2)C1` [Compound 127, N-(3-(benzo[d]thiazol-2-yl)-6-isopropyl-4,5,6,7-tetrahydrothieno[2,3-c]pyridin-2-yl)-3-(tert-butylamino)propanamide], for which the IC50 is 300 to 1000 nM in experiment [1] and 300 to 1000 nM in experiment [2] (Homo sapiens, NCI-H2171, 72 h).

Regarding `CNCCC(=O)Nc1sc2c(c1-c1nc3ccccc3s1)CCNC2` [Compound 128, N-(3-(benzo[d]thiazol-2-yl)-4,5,6,7-tetrahydrothieno[2,3-c]pyridin-2-yl)-3-(methylamino)propanamide], the IC50 in experiment [1] was under 300 nM; in experiment [2] (Homo sapiens, NCI-H2171, 72 h), under 300 nM.

As to `CC(C)NCCC(=O)Nc1sc2c(c1-c1nc3ccccc3s1)CCNC2` [Compound 129, N-(3-(benzo[d]thiazol-2-yl)-4,5,6,7-tetrahydrothieno[2,3-c]pyridin-2-yl)-3-(isopropylamino)propanamide], the IC50 in experiment [1] was under 300 nM; in experiment [2] (Homo sapiens, NCI-H2171, 72 h) it was under 300 nM.

With `CN(C)CCC(=O)Nc1sc2c(c1-c1nc3ccccc3s1)CCNC2` [Compound 130, N-(3-(benzo[d]thiazol-2-yl)-4,5,6,7-tetrahydrothieno[2,3-c]pyridin-2-yl)-3-(dimethylamino)propanamide], the IC50 in experiment [1] was under 300 nM; in experiment [2] (Homo sapiens, NCI-H2171, 72 h), under 300 nM.

Turning to `CC(C)(C)NCCC(=O)Nc1sc2c(c1-c1nc3ccccc3s1)CCNC2` [Compound 131, N-(3-(benzo[d]thiazol-2-yl)-4,5,6,7-tetrahydrothieno[2,3-c]pyridin-2-yl)-3-(tert-butylamino)propanamide], the IC50 is under 300 nM in experiment [1] and 300 to 1000 nM in experiment [2] (Homo sapiens, NCI-H2171, 72 h).

Turning to `CC(C)NCCC(=O)Nc1sc2c(c1-c1nc3ccccc3s1)CCN(C(C)C)C2` [Compound 132, N-(3-(benzo[d]thiazol-2-yl)-6-isopropyl-4,5,6,7-tetrahydrothieno[2,3-c]pyridin-2-yl)-3-(isopropylamino)propanamide], the IC50 in experiment [1] was 300 to 1000 nM; in experiment [2] (Homo sapiens, NCI-H2171, 72 h), 300 to 1000 nM.

For `CC(C)N1CCc2c(sc(NC(=O)CCN3C(=O)C=CC3=O)c2-c2nc3ccccc3s2)C1` [Compound 133, N-(3-(benzo[d]thiazol-2-yl)-6-isopropyl-4,5,6,7-tetrahydrothieno[2,3-c]pyridin-2-yl)-3-(2,5-dioxo-2,5-dihydro-1H-pyrrol-1-yl)propanamide], the IC50 is over 10000 nM in experiment [1] and 1000 to 10000 nM in experiment [2] (Homo sapiens, NCI-H2171, 72 h).

On to `COCCNCCC(=O)Nc1sc2c(c1-c1nc3ccccc3s1)CCNC2` [Compound 134, N-(3-(benzo[d]thiazol-2-yl)-4,5,6,7-tetrahydrothieno[2,3-c]pyridin-2-yl)-3-((2-methoxyethyl)amino)propanamide], for which the IC50 in experiment [1] was under 300 nM; in experiment [2] (Homo sapiens, NCI-H2171, 72 h), under 300 nM.

For `CC[C@H](C)NCCC(=O)Nc1sc2c(c1-c1nc3ccccc3s1)CCN(C(C)C)C2` [Compound 135, (S)—N-(3-(benzo[d]thiazol-2-yl)-6-isopropyl-4,5,6,7-tetrahydrothieno[2,3-c]pyridin-2-yl)-3-(sec-butylamino)propanamide], the IC50 is under 300 nM in experiment [1] and under 300 nM in experiment [2] (Homo sapiens, NCI-H2171, 72 h).

Regarding `O=C(CCNCCc1cccnc1)Nc1sc2c(c1-c1nc3ccccc3s1)CCNC2` [Compound 136, N-(3-(benzo[d]thiazol-2-yl)-4,5,6,7-tetrahydrothieno[2,3-c]pyridin-2-yl)-3-((2-(pyridin-3-yl)ethyl)amino) propanamide], the IC50 in experiment [1] is 1000 to 10000 nM; in experiment [2] (Homo sapiens, NCI-H2171, 72 h) it was 300 to 1000 nM.

As to `CCC(C)NCCC(=O)Nc1sc2c(c1-c1nc3ccccc3s1)CCN(C1COC1)C2` (stereo not shown) [Compound 137, N-(3-(benzo[d]thiazol-2-yl)-6-(oxetan-3-yl)-4,5,6,7-tetrahydrothieno[2,3-c]pyridin-2-yl)-3-(sec-butylamino)propanamide], the IC50 was 1000 to 10000 nM in experiment [1] and over 10000 nM in experiment [2] (Homo sapiens, NCI-H2171, 72 h).

Turning to `CC[C@@H](C)NCCC(=O)Nc1sc2c(c1-c1nc3ccccc3s1)CCN(C(C)C)C2` [Compound 140, (R)—N-(3-(benzo[d]thiazol-2-yl)-6-isopropyl-4,5,6,7-tetrahydrothieno[2,3-c]pyridin-2-yl)-3-(sec-butylamino)propanamide], the IC50 in experiment [1] is under 300 nM; in experiment [2] (Homo sapiens, NCI-H2171, 72 h), under 300 nM.

The values are drawn from US10787444B2, “Compounds for the modulation of myc activity” (Syros Pharmaceuticals, Inc., priority 2015, dated 2020).
